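Values below derive from 48-hour exposures of cells grown in 96-well plates, with endpoints linearly interpolated between the two concentrations bracketing the appropriate inhibition level. Definition used: TGI = concentration required for complete inhibition of growth.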

For 13 compounds, TGI results are on record in PubChem BioAssay (NCI).

What all share (assay): NCI-60 cell line screen, 48 h
In test [1] the test system is CCRF-CEM leukemia.
Test [2] has as its system HL-60(TB) leukemia.
For test [3], the system named is HOP-92 NSCLC.
Test [4] relates to IGROV1 ovarian.
In test [5] the test system is MOLT-4 leukemia.
In test [6] the test system is NCI-H460 lung.
In test [7] the test system is RPMI-8226 leukemia.
The subject of test [8] is SF-295 CNS.
In test [9] the test system is TK-10 renal.
Test [10] relates to A549 NSCLC.

As to `COc1ccccc1C1C(C(=O)O)=C(CO)Oc2cc3c(cc21)OCO3` (centres undefined), the TGI in test [1], in test [2], in test [3], in [4], in test [5] and in test [6] was > 100 µM in each case. The TGI in test [7], in [8] and in [9] was > 100 µM each time.
For the compound `Oc1ccc2ccccc2c1/C=C/c1ccc2c(Br)cc(Br)c(O)c2n1`, the TGI in test [10] is 20.5 µM; in test [1], 15.6 µM; in test [2], 12.3 µM; in test [3] it was 35.5 µM; in test [4], 32.5 µM; in [5], 15.4 µM. Moreover, the TGI in test [6] came to 16.2 µM; in test [7], 41.4 µM; in test [8], 18.5 µM; in test [9] it was 23.2 µM.
As for `C[C@]12C=CC(=O)C=C1CC[C@H]1[C@@H]3C[C@@H](O)[C@](O)(C(=O)CO)[C@@]3(C)C[C@H](O)[C@@]12F`, the TGI in test [10], in test [1], in test [2], in test [3], in test [4] and in test [5] was > 100 µM in each case. Also, the TGI in [6], in test [7], in test [8] and in [9] was > 100 µM in each case.
For the compound `C=CCNC1=C2C[C@@H](C)C[C@@H](OC)[C@H](OC(=O)CCCCN)[C@H](C)/C=C(\C)[C@@H](OC(N)=O)[C@H](OC)/C=C\C=C(/C)C(=O)NC(=CC1=O)C2=O`, the TGI in [10] was determined as 25.2 µM; in [1] it was 56.4 µM; in test [2] it was 30.3 µM; in test [3], 35.7 µM; in test [4], 28.6 µM; in test [5], 52.9 µM. Besides, the TGI in test [6] amounted to 26 µM; in [7], 35.1 µM; in [8], 29.9 µM; in test [9] it was 29 µM.
As for `CCc1nc(N)nc(N)c1-c1ccc2nn(-c3ccccc3)[n+]([O-])c2c1`, the TGI in test [10] worked out at 27.8 µM; in test [1] it was 36.8 µM; in test [2], 27.4 µM; in [3], 27 µM; in test [4], 23.2 µM; in test [5] it was 32.5 µM. For the same compound, the TGI in test [6] was determined as 14.8 µM; in test [7], 35.7 µM; in [8], 63.5 µM; in test [9], 55.6 µM.
In the case of `CCC1(CC)SCc2nc3ccccc3n21`, the TGI in test [10] was > 100 µM; in test [1], > 100 µM; in [2], 59.5 µM; in test [3] it was 61.2 µM; in test [4], > 100 µM; in test [5], 84.3 µM. The TGI in test [6] is > 100 µM; in test [7], 65.7 µM; in [8], > 100 µM; in [9] it was > 100 µM.
`CCn1c(-c2cc(OC)cc(OC)c2)nc2c1C(=O)c1ccccc1C2=O`: the TGI in test [10], in [1], in [2], in [3], in test [4] and in test [5] was > 100 µM in each case. The TGI in test [6], in [7], in test [8] and in test [9] was > 100 µM in each case.
Take `CC(=O)n1nc(-c2ccccc2)n(/N=C/c2ccc([N+](=O)[O-])cc2)c1=O`: the TGI in [10], in test [1], in test [2], in [3], in test [4] and in test [5] was > 100 µM in each case. Also, the TGI in [6], in [7], in test [8] and in test [9] was > 100 µM each time.
As for `CC(=O)NC1C(OCc2ccccc2)OC(CO)C(O)C1OC(C)C(=O)NC(C)C(=O)NC(CCC(=O)NCCCNc1c2ccccc2nc2cccc([N+](=O)[O-])c12)C(N)=O` (centres undefined), the TGI is 11.6 µM in test [10]; > 100 µM in test [1]; > 100 µM in test [2]; 5.8 µM in test [3]; 72.9 µM in test [4]; > 100 µM in [5]. The TGI in test [6] was 1.96 µM; in test [7] it was > 100 µM; in test [8] it was 35.2 µM; in test [9], 9.97 µM.
As for `COc1cc(-c2cc(=O)c3c(OC)c(OC)c(OC)c(OC)c3o2)c(OC)c(OC)c1OC`, the TGI in [10] is > 100 µM; in [1] it was > 100 µM; in test [2], > 100 µM; in [3], 82.5 µM; in test [4], > 100 µM; in test [5] it was > 100 µM. Further, the TGI in test [6], in test [7], in [8] and in [9] was > 100 µM in each case.
As to `CCOC(=O)C1=C(C)N(C)C23OC4(C(=O)OC)CC2c2ccccc2C1N3C4=O` (centres undefined), the TGI in test [10], in [1], in test [2], in test [3], in test [4] and in test [5] was > 100 µM throughout. The TGI in test [6], in test [7], in test [8] and in test [9] was > 100 µM in each case.
As for `CC[N+](CC)(CCNCC(N)=O)CC(N)=O`, the TGI in [10], in test [1], in [2], in [3], in [4] and in test [5] was > 10 µM each time. Besides, the TGI in test [6], in test [7], in test [8] and in [9] was > 10 µM throughout.
As to `O=[N+]([O-])c1ccc(/C=N/n2c(CO)nc3ccccc32)o1`, the TGI in [10] was 36.5 µM; in [1], 36.8 µM; in [2], 9.41 µM; in test [3], 14.8 µM; in test [4], 6.09 µM; in test [5] it was 7.12 µM. The TGI in test [6] was found to be 16.3 µM; in [7] it was 19.6 µM; in test [8], 25.2 µM; in [9], 19.2 µM.
